This test addresses T1, Cbl-B (Homo sapiens, UniProt Q13191).
T1 construct: MSD-Based Assay for Degradation of Cbl-B in THP-1 Cells; endogenous in cells; host or cells: THP-1 (title) / Jurkat (protocol text)
The test is described as follows: MSD-based assay for degradation of Cbl-B in THP-1 cells. It counts as cell-based. The method, boiled down:
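THP-1 cells were treated with compound for 24 h at 37 °C. Cbl-B in lysates was quantified by MSD sandwich immunoassay, with anti-Cbl-B capture antibody at 1 ug/mL and SULFO-TAG anti-rabbit detection. Maximal degradation (Dmax) was binned as A >70%, B 50–70%, C 30–50%, D <30%.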

Setting [1] is: Cbl-B degradation, Jurkat cells seeded (heading: THP-1 cells), 24 hours incubation, MSD readout.
The mark [2] stands for this setting: Cbl-B degradation, Jurkat cells seeded (heading: THP-1 cells), 24 hours incubation, MSD readout, read-out: Dmax.

Where two headings read alike, the source gives them in different places. Where only a bound is given, the exact number is not on record here.

Usually DC50 stands for the concentration giving 50% degradation. A word on the Dmax: it is the largest share of the target that was removed.

T1 sequence (Q13191 whole entry): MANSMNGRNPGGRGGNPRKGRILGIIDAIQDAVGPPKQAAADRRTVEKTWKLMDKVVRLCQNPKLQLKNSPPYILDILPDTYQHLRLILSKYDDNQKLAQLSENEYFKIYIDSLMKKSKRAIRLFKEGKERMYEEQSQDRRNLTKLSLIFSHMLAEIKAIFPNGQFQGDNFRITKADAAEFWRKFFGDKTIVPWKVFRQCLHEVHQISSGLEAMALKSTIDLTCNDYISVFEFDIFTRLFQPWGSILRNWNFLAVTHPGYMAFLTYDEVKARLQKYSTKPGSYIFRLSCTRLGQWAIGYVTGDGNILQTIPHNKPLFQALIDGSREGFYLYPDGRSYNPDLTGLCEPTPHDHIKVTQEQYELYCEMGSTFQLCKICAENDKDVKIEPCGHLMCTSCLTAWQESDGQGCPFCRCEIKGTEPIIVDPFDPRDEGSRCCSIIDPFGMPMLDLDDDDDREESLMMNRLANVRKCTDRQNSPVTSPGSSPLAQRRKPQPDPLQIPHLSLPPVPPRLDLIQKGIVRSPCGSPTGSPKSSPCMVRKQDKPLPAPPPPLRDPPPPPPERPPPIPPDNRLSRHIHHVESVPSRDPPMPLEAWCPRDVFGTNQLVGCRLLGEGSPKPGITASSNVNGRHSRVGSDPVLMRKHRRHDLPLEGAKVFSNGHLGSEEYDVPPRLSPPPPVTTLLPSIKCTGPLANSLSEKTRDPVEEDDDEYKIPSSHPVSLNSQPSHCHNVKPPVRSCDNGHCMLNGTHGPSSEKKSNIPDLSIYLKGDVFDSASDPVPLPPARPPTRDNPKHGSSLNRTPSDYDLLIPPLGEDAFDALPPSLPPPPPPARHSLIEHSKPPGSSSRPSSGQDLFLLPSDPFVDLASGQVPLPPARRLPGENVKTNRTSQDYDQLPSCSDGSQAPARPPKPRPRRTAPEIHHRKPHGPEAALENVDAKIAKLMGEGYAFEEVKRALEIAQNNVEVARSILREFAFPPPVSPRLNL

For the compound `Cn1cnnc1[C@@H](c1cccc(-n2cc3c(C(F)(F)F)cc(CN4CCC(O[C@H]5CCCN(C(=O)c6ccc(N7CCN(c8ccc9c(c8)CN([C@H]8CCC(=O)NC8=O)C9=O)CC7)cc6)C5)CC4)cn3c2=O)c1)C1CCC1` (single isomer, unassigned) [Compound 248], the DC50 under setting [1] is < 30 nM. The Dmax under setting [2] was > 70%.

In turn, `Cn1cnnc1CC1(c2cccc(-n3cc4c(C(F)(F)F)cc(CN5CCC(OCc6ccc(N7CCN(c8ccc9c(c8)CN([C@@H]8CCC(=O)NC8=O)C9=O)CC7)cc6)CC5)cn4c3=O)c2)COC1` (single isomer, unassigned) [Compound 249] came in with a DC50 under setting [1] of 30 to 300 nM. Further, the Dmax under setting [2] was in the range of 30 to 50%.

For `Cn1cnnc1CC1(c2cccc(-n3cc4c(C(F)(F)F)cc(CN5CCC(OCc6ccc(N7CCN(c8ccc9c(c8)CN([C@H]8CCC(=O)NC8=O)C9=O)CC7)cc6)CC5)cn4c3=O)c2)COC1` (single isomer, unassigned) [Compound 250], under setting [1], the DC50 is < 30 nM. Further, the Dmax under setting [2] was 50 to 70%.

In turn, `Cn1cnnc1[C@@H](c1cccc(-n2cc3c(C(F)(F)F)cc(CN4CCC(OC(=O)N5CCC(CC6CCN(c7ccc8c(c7)CN([C@@H]7CCC(=O)NC7=O)C8=O)CC6)CC5)CC4)cn3c2=O)c1)C1CCC1` (single isomer, unassigned) [Compound 253] returned a DC50 under setting [1] of 30 to 300 nM. Also, under setting [2], the Dmax is 50 to 70%.

On to `Cn1cnnc1[C@@H](c1cccc(-n2cc3c(C(F)(F)F)cc(CN4CCC(OC(=O)N5CCC(CC6CCN(c7ccc8c(c7)CN([C@H]7CCC(=O)NC7=O)C8=O)CC6)CC5)CC4)cn3c2=O)c1)C1CCC1` (single isomer, unassigned) [Compound 254], for which, under setting [1], the DC50 is < 30 nM. Also, the Dmax under setting [2] was > 70%.

In the case of `Cn1cnnc1CC1(c2cccc(-n3cc4c(C(F)(F)F)cc(CN5CCC(CC(=O)N6CCC(CC7CCN(c8ccc9c(c8)CN([C@@H]8CCC(=O)NC8=O)C9=O)CC7)CC6)CC5)cn4c3=O)c2)COC1` (single isomer, unassigned) [Compound 257], under setting [1], the DC50 lay within 30 to 300 nM. Moreover, for the setting “THP-1”, the Dmax lay within 50 to 70%.

As for `Cn1cnnc1CC1(c2cccc(-n3cc4c(C(F)(F)F)cc(CN5CCC(CC(=O)N6CCC(CC7CCN(c8ccc9c(c8)CN([C@H]8CCC(=O)NC8=O)C9=O)CC7)CC6)CC5)cn4c3=O)c2)COC1` (single isomer, unassigned) [Compound 258], under setting [1], the DC50 is < 30 nM. Moreover, the Dmax (THP-1) was > 70%.

For `Cn1cnnc1CC1(c2cccc(-n3cc4c(C(F)(F)F)cc(CN5CCC(CCN6CCC(CC7CCN(c8ccc9c(c8)CN([C@@H]8CCC(=O)NC8=O)C9=O)CC7)CC6)CC5)cn4c3=O)c2)COC1` (single isomer, unassigned) [Compound 259], under setting [1], the DC50 fell in the range of 30 to 300 nM. For the same compound, the Dmax under setting [2] fell in the range of 50 to 70%.

For `Cn1cnnc1CC1(c2cccc(-n3cc4c(C(F)(F)F)cc(CN5CCC[C@@H](OC6CCN(C(=O)c7ccc(N8CCN(c9ccc%10c(c9)CN([C@@H]9CCC(=O)NC9=O)C%10=O)CC8)cc7)CC6)C5)cn4c3=O)c2)COC1` (single isomer, unassigned) [Compound 263], the half-maximal degradation concentration (DC50) under setting [1] is < 30 nM. Moreover, under setting [2], the Dmax was > 70%.

For the compound `Cn1cnnc1CC1(c2cccc(-n3cc4c(C(F)(F)F)cc(CN5CCC[C@@H](OC6CCN(C(=O)c7ccc(N8CCN(c9ccc%10c(c9)CN([C@H]9CCC(=O)NC9=O)C%10=O)CC8)cc7)CC6)C5)cn4c3=O)c2)COC1` (single isomer, unassigned) [Compound 264], the DC50 under setting [1] was < 30 nM. Besides, the Dmax under setting [2] is > 70%.

In the case of `Cn1cnnc1CC1(c2cccc(-n3cc4c(C(F)(F)F)cc(CNCCOCCOCCNc5cccc6c5C(=O)N(C5CCC(=O)NC5=O)C6=O)cn4c3=O)c2)COC1` (stereo not shown) [Compound 1], the DC50 under setting [1] was > 10000 nM. Under setting [2], the Dmax was < 30%.

`Cn1cnnc1CC1(c2cccc(-n3cc4c(C(F)(F)F)cc(CNCCOCCNc5cccc6c5C(=O)N(C5CCC(=O)NC5=O)C6=O)cn4c3=O)c2)COC1` (stereo not shown) [Compound 2]: the DC50 under setting [1] is > 10000 nM. For the same compound, the Dmax under setting [2] is < 30%.

Compound `Cn1cnnc1CC1(c2cccc(-n3cc4c(C(F)(F)F)cc(CN5CCC(OCCOCc6ccc(COCCNc7cccc8c7C(=O)N(C7CCC(=O)NC7=O)C8=O)cc6)CC5)cn4c3=O)c2)COC1` (stereo not shown) [Compound 3] had a DC50 under setting [1] of 300 to 1000 nM. The Dmax under setting [2] fell in the range of 50 to 70%.

On to `Cn1cnnc1CC1(c2cccc(-n3cc4c(C(F)(F)F)cc(CNCCOCCOCc5ccc(COCCNc6cccc7c6C(=O)N(C6CCC(=O)NC6=O)C7=O)cc5)cn4c3=O)c2)COC1` (stereo not shown) [Compound 4], for which the DC50 under setting [1] is > 10000 nM. For the same compound, under setting [2], the Dmax was < 30%.

`Cn1cnnc1CC1(c2cccc(-n3cc4c(C(F)(F)F)cc(CN5CCC(OCCN6CCC(CN7CCN(c8cc9c(cc8F)C(=O)N(C8CCC(=O)NC8=O)C9=O)CC7)CC6)CC5)cn4c3=O)c2)COC1` (stereo not shown) [Compound 7]: the DC50 under setting [1] was > 10000 nM. In addition, for the setting “THP-1”, the Dmax was < 30%.

With `Cn1cnnc1CC1(c2cccc(-n3cc4c(C(F)(F)F)cc(CN5CCC(OCCOCc6ccc(CNc7cccc8c7C(=O)N(C7CCC(=O)NC7=O)C8=O)cc6)CC5)cn4c3=O)c2)COC1` (stereo not shown) [Compound 12], the DC50 under setting [1] was > 10000 nM. Moreover, the Dmax under setting [2] is < 30%.

Under setting [1], `Cn1cnnc1[C@@H](c1cccc(-n2cc3c(C(F)(F)F)cc(CN4CCC(OCc5ccc(COCCNc6cccc7c6C(=O)N(C6CCC(=O)NC6=O)C7=O)cc5)CC4)cn3c2=O)c1)C1CCC1` (stereo partly shown) [Compound 13] gave a DC50 of 1000 to 10000 nM. The Dmax under setting [2] was < 30%.

Compound `Cn1cnnc1[C@@H](c1cccc(-n2cc3c(C(F)(F)F)cc(CN4CCC(OCCOCc5ccc(CNc6cccc7c6C(=O)N(C6CCC(=O)NC6=O)C7=O)cc5)CC4)cn3c2=O)c1)C1CCC1` (stereo partly shown) [Compound 14] came in with a half-maximal degradation concentration (DC50) under setting [1] of 1000 to 10000 nM. The Dmax under setting [2] is 30 to 50%.

In the case of `CN(CCN1CCC(CN2CCN(c3cc4c(cc3F)C(=O)N(C3CCC(=O)NC3=O)C4=O)CC2)CC1)Cc1cc(C(F)(F)F)c2cn(-c3cccc(C4(Cc5nncn5C)COC4)c3)c(=O)n2c1` (stereo not shown) [Compound 15], under setting [1], the DC50 was > 10000 nM. Under setting [2], the Dmax was < 30%.

With `Cn1cnnc1[C@@H](c1cccc(-n2cc3c(C(F)(F)F)cc(CN4CCC(OCCN5CCC(CN6CCN(c7cc8c(cc7F)C(=O)N(C7CCC(=O)NC7=O)C8=O)CC6)CC5)CC4)cn3c2=O)c1)C1CCC1` (stereo partly shown) [Compound 16], the DC50 under setting [1] lay within 1000 to 10000 nM. Moreover, under setting [2], the Dmax was in the range of 30 to 50%.

In the case of `Cn1cnnc1[C@@H](c1cccc(-n2cc3c(C(F)(F)F)cc(CN4CCC[C@H](OCCOCc5ccc(COCCNc6cccc7c6C(=O)N(C6CCC(=O)NC6=O)C7=O)cc5)C4)cn3c2=O)c1)C1CCC1` (stereo partly shown) [Compound 17], under setting [1], the DC50 was 30 to 300 nM. Besides, the Dmax under setting [2] fell in the range of 50 to 70%.

`Cn1cnnc1CC1(c2cccc(-n3cc4c(C(F)(F)F)cc(CN5CCC(OCCOCc6ccc(CN7CCN(c8cc9c(cc8F)C(=O)N(C8CCC(=O)NC8=O)C9=O)CC7)cc6)CC5)cn4c3=O)c2)COC1` (stereo not shown) [Compound 18]: the DC50 under setting [1] was > 10000 nM. Moreover, under setting [2], the greatest degradation seen (Dmax) was < 30%.

As to `Cn1cnnc1CC1(c2cccc(-n3cc4c(C(F)(F)F)cc(CN5CCC(OCCOCc6ccc(CN7CCN(c8cccc9c8C(=O)N(C8CCC(=O)NC8=O)C9=O)CC7)cc6)CC5)cn4c3=O)c2)COC1` (stereo not shown) [Compound 19], under setting [1], the DC50 was > 10000 nM. Further, the Dmax under setting [2] was < 30%.

`Cn1cnnc1[C@@H](c1cccc(-n2cc3c(C(F)(F)F)cc(CC4CCC[C@@H](OCCOCc5ccc(COCCNc6cccc7c6C(=O)N(C6CCC(=O)NC6=O)C7=O)cc5)C4)cn3c2=O)c1)C1CCC1` (stereo partly shown) [Compound 20] yielded a DC50 under setting [1] of 300 to 1000 nM. Further, the Dmax under setting [2] lay within 50 to 70%.

`Cn1cnnc1CC1(c2cccc(N3Cc4c(cc(CN5CCC(OCCOCc6ccc(COCCNc7cccc8c7C(=O)N(C7CCC(=O)NC7=O)C8=O)cc6)CC5)cc4C(F)(F)F)C3=O)c2)COC1` (stereo not shown) [Compound 21] registered a DC50 under setting [1] of 1000 to 10000 nM. Under setting [2], the Dmax fell in the range of 30 to 50%.

Compound `Cn1cnnc1[C@@H](c1cccc(N2Cc3c(cc(CN4CCC(OCCOCc5ccc(COCCNc6cccc7c6C(=O)N(C6CCC(=O)NC6=O)C7=O)cc5)CC4)cc3C(F)(F)F)C2=O)c1)C1CCC1` (stereo partly shown) [Compound 22] gave a 50% degradation concentration (DC50) under setting [1] of 30 to 300 nM. For the same compound, the Dmax under setting [2] was > 70%.

For the compound `Cn1cnnc1[C@@H](c1cccc(-n2cc3c(C(F)(F)F)cc(CN4CCC(OCCOCc5ccc(CN6CCN(c7cc8c(cc7F)C(=O)N(C7CCC(=O)NC7=O)C8=O)CC6)cc5)CC4)cn3c2=O)c1)C1CCC1` (stereo partly shown) [Compound 23], the DC50 under setting [1] is > 10000 nM. Further, the Dmax under setting [2] is < 30%.

Consider `Cn1cnnc1[C@@H](c1cccc(-n2cc3c(C(F)(F)F)cc(CN4CCC(OCCOCc5ccc(CN6CCN(c7cccc8c7C(=O)N(C7CCC(=O)NC7=O)C8=O)CC6)cc5)CC4)cn3c2=O)c1)C1CCC1` (stereo partly shown) [Compound 24], for which the DC50 under setting [1] is > 10000 nM. For the same compound, the Dmax under setting [2] was < 30%.

The compound `Cn1cnnc1CC1(c2cccc(-n3cc4c(C(F)(F)F)cc(CN5CCC(OCCN6CCC(CN7CCCN(c8ccc9c(c8)CN(C8CCC(=O)NC8=O)C9=O)CC7)CC6)CC5)cn4c3=O)c2)COC1` (stereo not shown) [Compound 25] gave a DC50 under setting [1] of 300 to 1000 nM. Further, the Dmax under setting [2] lay in the range of 30 to 50%.

Consider `Cn1cnnc1[C@@H](c1cccc(-n2cc3c(C(F)(F)F)cc(CN4CCC(COCc5ccc(CN6CCN(c7cccc8c7C(=O)N(C7CCC(=O)NC7=O)C8=O)CC6)cc5)CC4)cn3c2=O)c1)C1CCC1` (stereo partly shown) [Compound 28], for which the 50% degradation concentration (DC50) under setting [1] was > 10000 nM. Under setting [2], the Dmax is < 30%.

On to `Cn1cnnc1[C@@H](c1cccc(-n2cc3c(C(F)(F)F)cc(CN4CCC(CN5CCC(CN6CCN(c7cc8c(cc7F)C(=O)N(C7CCC(=O)NC7=O)C8=O)CC6)CC5)CC4)cn3c2=O)c1)C1CCC1` (stereo partly shown) [Compound 29], for which the DC50 under setting [1] was > 10000 nM. The Dmax under setting [2] is < 30%.

Regarding `Cn1cnnc1[C@@H](c1cccc(-n2cc3c(C(F)(F)F)cc(CN4CCC(C(=O)N5CCC(CN6CCN(c7cc8c(cc7F)C(=O)N(C7CCC(=O)NC7=O)C8=O)CC6)CC5)CC4)cn3c2=O)c1)C1CCC1` (stereo partly shown) [Compound 30], the DC50 under setting [1] was > 10000 nM. Moreover, the Dmax under setting [2] is < 30%.

Values taken from patent US20250340552A1, “COMPOUNDS, COMPOSITIONS AND METHODS OF TREATING DISORDERS” (HOTSPOT THERAPEUTICS, INC., priority 2022, published 2025).
